Columns and labels:
M-001 melanoma cells [1] = experiment: Melanoma tumor progression in Zebra fish larvae; format: in vivo, zebrafish; conditions: for Melanoma tumor progression index (tumor size × metastasis), Mean: 72 hours of growth
Method: Zebra fish larvae (FIG. 3A) allow direct visualization of injected tumor cell growth and metastasis (collectively tumor progression) using fluorescently label tumor cells. At this developmental stage both the zebra fish immune system and gut microbiome are immature or lacking. Co-injection of exogenous tumor infiltrating lymphocytes (ex-TILS) allows the separate study of immune surveillance in the absence of a microbiome.
(§1) The toxicity screening period covered the first 72 hours of development. The efficacy evaluation of Axelopran was made using M-001 melanoma cells and matching TILs. Two-day old zebrafish embryos were subcutaneously injected into the perivitelline space with approximately 700 M-001 cells labelled with Dil red fluorescent dye and intravenously injected with TILs with or without pembrolizumab antibody. At the same time, MOR-antagonist test doses were added to the water. Following an additional 72 hours of further development, the fish were assayed for tumor growth (size of original tumor implant) and metastasis disseminated to the distal caudal venous plexus (CVP) three days after implantation.
The testing described above was repeated studying the effects of various doses of axelopran (0, 50 nM, 100 nM, 500 nM, and 1000 nM) alone, pembrolizumab alone, or pembrolizumab in combination with axelopran. The results of this testing are shown in FIG. 7, which depicts a summary of melanoma tumor progression (tumor size×#metastasis) in the presence of increasing axelopran concentrations or the checkpoint inhibitor pembrolizumab. For experiments using pembrolizumab, exogenous tumor-infiltrating lymphocytes (TILs) were also injected. The additional controls included the effect of TILs alone and with axelopran (500 nM) and pembrolizumab and TILs alone and with axelopran (500 nM). *=<0.05, **=<0.005, ***=<0.0005.

M-001 melanoma cells [2] = experiment: Melanoma tumor progression in Zebra fish larvae; format: in vivo, zebrafish; conditions: Axelopran 10000 nM, 72 hours of growth
Zebra fish larvae = Zebra fish larvae toxicity screen; format: in vivo, zebrafish; conditions: doses up to 100 μM in incubation water
Method: Transgenic Tg(fli1: EGFP)y1 zebrafish embryos were used for these studies. The results of this testing are shown in FIG. 4A and FIG. 4B, which show Zebra fish larvae survival up to 72 hours in the presence of increasing axelopran concentration in the incubation water.
Based on the toxicity screening, for tumor progression analysis, doses up to 10 μM were utilized.
as §1

[3] = tested on: Human umbilical vein endothelial cells (HUVEC); experiment: HUVEC cell tube formation; format: cell-based; conditions: 0-1000 nM, 18 hours, absence of exogenous opioids
Method: Two independent model systems were used to explore the role of MOR and endogenous opioids on angiogenesis. Human umbilical vein endothelial cells (HUVEC) in culture initiate angiogenesis through tube formation when cultured on an appropriate extracellular matrix. In a living system, the chicken egg chorioallantoic membrane assay (CAM) allows direct visualization of new blood vessel formation.
Specifically, the HUVEC cell tube formation was assessed in the presence of various doses (0-1000 nM) of three different Mu opioid receptor antagonists (axelopran, naloxegol, and methylnaltrexone (MNTX)). For this testing, the HUVEC cells were exposed to the various MOR antagonist concentrations and incubated under the following conditions: Briefly, 50 μL of Matrigel in 96 well plates was loaded to make one layer of extracellular matrix. The plate was kept for 1 hour at 37° C. HUVEC cells were seeded on top of Matrigel (0.02×10^6 cells/well) and waited for 4 h to form tube formation. […] Once tubes formed, cells were treated with increasing amounts of the test compounds (axelopran, naloxegol, and MNTX) and incubated for 18 hours. Cells were stained with Calcein AM and images were captured. The data analysis was performed using NIH imageJ software. Tube length was measure and data was plotted using prism software.

[4] = tested on: Mouse pancreatic tumor cells (PAN02 cells); experiment: Syngeneic mouse pancreatic cancer model; format: in vivo, mice (C57BL6)
Method: Mouse pancreatic tumor cells (PAN02 cells), maintained in RPMI 1640 media supplemented with 10% FBS and 2 mmol/L L-glutamine, were amplified in vitro prior to implantation. On the day of injection, cells were harvested, counted including a trypan blue viability dye (cut-off 80%), and resuspended in PBS at the appropriate concentration. The cells (5×10^6 in 200 μL PBS) were injected subcutaneously in the right flank of Female mice (C57BL6), 5 weeks of age (18-22 gm body weight) within 30 minutes after harvesting. After 9 days of tumor growth, mice were randomized into treatment groups at 10 animals/group. Treatments included vehicle (PBS), axelopran given as 1 mg/kg, p.o. daily, mouse anti-PD-1 given as 12.5 mg/kg i.p., 3x/week and axelopran plus mouse anti-PD-1. Animals were weighed thrice weekly and tumor growth measured using callipers as described previously for the colon cancer experiments.

[5] = absence of exogenous opioids, melanoma

NC(=O)c1cccc(C2CC3CCC(C2)N3CCN(CC2CCCCC2)C(=O)[C@@H](O)CO)c1 (stereo partly drawn) [axelopran, 3-[(1R,3r,5S)-8-(2-{(cyclohexylmethyl)[(2S)-2,3-dihydroxypropanoyl]amino}ethyl)-8-azabicyclo[3.2.1]octan-3-yl]benzamide]
metastasis (M-001 melanoma cells [1]; 10 μM axelopran vs vehicle control): significantly reduced metastasis
Melanoma tumor progression index (tumor size × metastasis), Mean (M-001 melanoma cells [1]; Axelopran 100 nM): 5.71
Melanoma tumor progression index (tumor size × metastasis), Mean (M-001 melanoma cells [1]; Axelopran 500 nM +TILS): 2.73
Melanoma tumor progression index (tumor size × metastasis), Mean (M-001 melanoma cells [1]; Axelopran 500 nM): 3.62
Melanoma tumor progression index (tumor size × metastasis), Mean (M-001 melanoma cells [1]; Axelopran 1000 nM): 1.85
interaction of axelopran activity with anti-PD-1 treatment (M-001 melanoma cells [1]; absence of a microbiome, melanoma): additive
metastasis (M-001 melanoma cells [1]; [5]): inhibits metastasis
tumor growth (M-001 melanoma cells [1]; [5]): inhibits tumor growth
Melanoma tumor progression index (tumor size × metastasis), Mean (M-001 melanoma cells [2]): 2.41
abnormal pathology (Zebra fish larvae): limited abnormal pathology
larvae death (Zebra fish larvae): did not result in larvae death
survival and development of pathological lesions (Zebra fish larvae; up to 72 hours): no different that the vehicle control
angiogenesis (HUVEC cell tube formation) [3]: inhibit angiogenesis
distribution of tumor volumes ([4]; compared to animals not treated with axelopran): lower and more uniform
inhibition of tumor progression ([4]; day 23, axelopran 1 mg/kg p.o. daily, mouse anti-PD-1 12.5 mg/kg i.p. 3x/week): most prominent

Source: patent US20250186423A1, “METHODS OF TREATING CANCER AND OTHER CONDITIONS WITH A MU OPIOID RECEPTOR ANTAGONIST” (priority 2022, published 2025)
